ChEMBL document CHEMBL3046274, “Toxicity of imidacloprid to developmental stages of Rhynchophorus ferrugineus (Curculionidae: Coleoptera): Laboratory and field tests” (Crop Prot, 2006)

Assays:
Assay type in all cases: ADME
[1] = system: Root; experiment: Drug uptake in Phoenix dactylifera (date palm) roots at 2.5 ml/l at 20 days post-treatment by UV spectrophotometric analysis; conditions: 480 h
[2] = system: Root; experiment: Drug uptake in Phoenix dactylifera (date palm) roots at 2.5 ml/l at 10 days post-treatment by UV spectrophotometric analysis; conditions: 240 h
[3] = system: Gomar; experiment: Drug uptake in Phoenix dactylifera (date palm) gomar at 2.5 ml/l at 20 days post-treatment by UV spectrophotometric analysis; conditions: 480 h
[4] = system: Gomar; experiment: Drug uptake in Phoenix dactylifera (date palm) gomar at 2.5 ml/l at 10 days post-treatment by UV spectrophotometric analysis; conditions: 240 h
[5] = system: Leaf base; experiment: Drug uptake in Phoenix dactylifera (date palm) leaf base at 2.5 ml/l at 20 days post-treatment by UV spectrophotometric analysis; conditions: 480 h
[6] = system: Leaf base; experiment: Drug uptake in Phoenix dactylifera (date palm) leaf base at 2.5 ml/l at 10 days post-treatment by UV spectrophotometric analysis; conditions: 240 h
[7] = system: Rachis; experiment: Drug uptake in Phoenix dactylifera (date palm) rachis at 2.5 ml/l at 20 days post-treatment by UV spectrophotometric analysis; conditions: 480 h
[8] = system: Rachis; experiment: Drug uptake in Phoenix dactylifera (date palm) rachis at 2.5 ml/l at 10 days post-treatment by UV spectrophotometric analysis; conditions: 240 h
[9] = system: Pinnae; experiment: Drug uptake in Phoenix dactylifera (date palm) pinnae at 2.5 ml/l at 20 days post-treatment by UV spectrophotometric analysis; conditions: 480 h
[10] = system: Pinnae; experiment: Drug uptake in Phoenix dactylifera (date palm) pinnae at 2.5 ml/l at 10 days post-treatment by UV spectrophotometric analysis; conditions: 240 h

O=[N+]([O-])NC1=NCCN1Cc1ccc(Cl)nc1 [IMIDACLOPRID]
Drug uptake [1]: 0.18 ppm
Drug uptake [2]: 0.41 ppm
Drug uptake [3]: 0.33 ppm
Drug uptake [4]: 0.46 ppm
Drug uptake [5]: 0.38 ppm
Drug uptake [6]: 0.51 ppm
Drug uptake [7]: 1.11 ppm
Drug uptake [8]: 1.31 ppm
Drug uptake [9]: 1.21 ppm
Drug uptake [10]: 0.32 ppm
